pIC50: −log10 of the molar value.
Experiments:
[1] = test system: MDA-MB-231 cells; test: AlamarBlue cell viability assay; type: cell-based; details: Homo sapiens, MDA-MB-231, 72 h
Protocol: The potent 3-fluoro-β-lactam compound 33 synthesised was also evaluated in the triple-negative MDA-MB-231 cell line which lacks expression of the estrogen and progesterone receptors (ER/PR) and the HER2 receptor. […]. Compound 32 was also evaluated in the triple-negative breast cancer cell line Hs578T and its isogenic subclone Hs578T(i)8 (Figure 4C). Hs578Ts(i)8 cells have 2.5-fold more migratory capacity and 3-fold more invasive capacity through the extracellular matrix than the parental cell line (Hs578T) and have 30% more CD44+/CD24-/low cells and in vivo proliferation. […]. […] Cell proliferation for MCF-7 cells was analysed with the AlamarBlue assay (Invitrogen Corp.) as previously described by us. […] Fluorescence results were obtained with a 96-well fluorimeter with excitation at 530 nm and emission at 590 nm with results recorded as percentage viability relative to vehicle control (100%). […]
Figure 4 Antiproliferative activity of 3-fluoro β-lactams on MCF-7, MDA-MB-231, Hs578T and Hs578T isogenic subclone Hs578T(i)8 breast cancer cells and non-tumourigenic HEK-293T cells. […] Cell viability was expressed as a percentage of vehicle control (ethanol 1% (v/v))-treated cells. […] Cell viability was expressed as a percentage of vehicle control (ethanol 1% (v/v))-treated cells and was measured by AlamarBlue assay (average of three independent experiments). […]

[2] = test system: purified bovine brain tubulin; set-up: method as in PMID 31954879; details: 10 μM; cited from earlier work
[3] = test system: Bcl-2; test: Western blot of apoptosis regulatory proteins in MCF-7 cells; type: cell-based, human; details: MCF-7, 0.05, 0.1 and 0.5 μM, 48 and 72 h, dose-dependent
Protocol: (§1) The selective Bcl-2 inhibitor venetoclax was developed as a BH3-mimetic that binds to the pro-survival protein Bcl-2 and inhibits its ability to bind Bax or Bak. Venetoclax has been approved for clinical use in the treatment of chronic lymphocytic leukaemia (CLL). Compound 33 induced downregulation of Bcl-2 expression with corresponding upregulation of Bax at 48 h in a dose-dependent manner. This effect was further increased at 72 h.
(§2) Western blot analysis was performed according to the protocols we previously described. MCF-7 cells were seeded at a density of 1 × 10^5 cells/flask in T25 flasks. After 48 h, whole cell lysates were prepared from untreated cells or cells treated with vehicle control (EtOH, 0.1% v/v) or cells treated with compound 33 (0.05 μM, 0.1 μM and 0.5 μM). MCF-7 cells were harvested in RIPA buffer which was supplemented with protease inhibitors (Roche Diagnostics, Rotkreuz, Switzerland), phosphatase inhibitor cocktail 2 (Sigma-Aldrich, Arklow, Ireland) and phosphatase inhibitor cocktail 3 (Sigma-Aldrich, Arklow, Ireland). Equal amounts of protein (as determined by a BCA assay) were resolved by SDS-PAGE (12%) followed by transfer to PVDF membranes. […] Proteins were detected using enhanced chemiluminescent Western blot detection (Clarity Western ECL substrate) (Bio-Rad) on the ChemiDoc MP System (Bio-Rad). […]

[4] = test system: Bax; test: as above; type: cell-based, human; details: MCF-7, 0.05, 0.1 and 0.5 μM, 48 and 72 h, dose-dependent
Protocol: as §1, §2

Row | SMILES | pIC50 [1] | reduction in the Vmax of tubulin polymerisation [2] [fold] | Bcl-2 expression [3] | Bax expression [4]
1 | COc1ccc(/C=C\c2cc(OC)c(OC)c(OC)c2)cc1O [CA-4, combretastatin A-4, reference compound] | 7.37 | 6.3 | – | –
2 | COc1ccc(C2C(F)C(=O)N2c2cc(OC)c(OC)c(OC)c2)cc1F (centres unmarked) [Compound 33, 3-Fluoro-4-(3-fluoro-4-methoxyphenyl)-1-(3,4,5-trimethoxyphenyl)azetidin-2-one] | 6.21 | – | downregulation | upregulation

— PMC9501633, “Synthesis, Characterisation and Mechanism of Action of Anticancer 3-Fluoroazetidin-2-ones” (Pharmaceuticals, 2022)
